SMILES strings stand for the structures.

T1 sequence (Q8NER1 whole entry): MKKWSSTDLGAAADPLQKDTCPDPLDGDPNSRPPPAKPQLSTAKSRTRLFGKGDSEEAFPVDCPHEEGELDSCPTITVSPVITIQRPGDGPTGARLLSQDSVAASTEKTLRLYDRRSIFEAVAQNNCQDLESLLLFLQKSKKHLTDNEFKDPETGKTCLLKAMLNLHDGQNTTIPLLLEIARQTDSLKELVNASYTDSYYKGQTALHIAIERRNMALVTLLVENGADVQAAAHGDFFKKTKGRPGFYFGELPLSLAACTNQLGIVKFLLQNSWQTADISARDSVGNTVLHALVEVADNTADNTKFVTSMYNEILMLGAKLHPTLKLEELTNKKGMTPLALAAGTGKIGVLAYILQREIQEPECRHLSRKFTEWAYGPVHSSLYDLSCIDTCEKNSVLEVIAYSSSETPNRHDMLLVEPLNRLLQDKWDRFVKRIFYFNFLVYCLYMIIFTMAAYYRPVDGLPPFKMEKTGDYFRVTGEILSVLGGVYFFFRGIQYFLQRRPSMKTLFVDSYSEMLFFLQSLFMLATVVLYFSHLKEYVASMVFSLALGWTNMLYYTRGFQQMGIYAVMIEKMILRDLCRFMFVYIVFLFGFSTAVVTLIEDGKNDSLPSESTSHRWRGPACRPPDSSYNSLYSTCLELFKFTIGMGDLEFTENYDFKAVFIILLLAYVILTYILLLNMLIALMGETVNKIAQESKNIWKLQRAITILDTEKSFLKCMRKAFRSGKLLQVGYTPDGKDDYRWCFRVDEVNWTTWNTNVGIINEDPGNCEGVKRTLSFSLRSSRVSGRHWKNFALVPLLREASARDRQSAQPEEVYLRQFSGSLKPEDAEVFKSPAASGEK
Chain of VR (Q8NER1 whole entry): as above

The first experiment concerns the target T1, human capsaicin receptor (Homo sapiens, UniProt Q8NER1).
T1 construct: transfected with the pBK-CMV expression construct encoding the full length human capsaicin receptor; expressed in transfected cells; host or cells: HEK293, stably transfected with the pBK-CMV construct
The experiment in a line: Calcium mobilization assay, determination of antagonist activity. In kind it is cell-based. Particulars: 50% decrease in the fluorescence response of cells expressing human capsaicin receptor exposed to capsaicin. The procedure: A cDNA encoding full length human capsaicin receptor (SEQ ID NO:1, 2 or 3 of U.S. Pat. No. 6,482,611) is subcloned in the plasmid pBK-CMV (Stratagene, La Jolla, Calif.) for recombinant expression in mammalian cells.
Human embryonic kidney (HEK293) cells are transfected with the pBK-CMV expression construct encoding the full length human capsaicin receptor using standard methods. The transfected cells are selected for two weeks in media containing G418 (400 μg/ml) to obtain a pool of stably transfected cells. Independent clones are isolated from this pool by limiting dilution to obtain clonal stable cell lines for use in subsequent experiments.
Cells transfected with expression plasmids (as described in Example 4) and thereby expressing human capsaicin receptor are seeded and grown to 70-90% confluency in FALCON black-walled, clear-bottomed 96-well plates (#3904, BECTON-DICKINSON, Franklin Lakes, N.J.). The culture medium is emptied from the 96 well plates and FLUO-3 AM calcium sensitive dye (Molecular Probes, Eugene, Oreg.) is added to each well (dye solution: 1 mg FLUO-3 AM, 440 μL DMSO and 440 μl 20% pluronic acid in DMSO, diluted 1:250 in Krebs-Ringer HEPES (KRH) buffer (25 mM HEPES, 5 mM KCl, 0.96 mM NaH2PO4, 1 mM MgSO4, 2 mM CaCl2, 5 mM glucose, 1 mM probenecid, pH 7.4), 50 μL diluted solution per well). Plates are covered with aluminum foil and incubated at 37° C. for 1-2 hours in an environment containing 5% CO2. After the incubation, the dye is emptied from the plates, and the cells are washed once with KRH buffer, and resuspended in KRH buffer.
To measure the ability of a test compound to agonize or antagonize a calcium mobilization response in cells expressing capsaicin receptors to capsaicin or other vanilloid agonist, the EC50 of the agonist capsaicin is first determined. An additional 20 μl of KRH buffer and 1 μl DMSO is added to each well of cells, prepared as described above. 100 μl capsaicin in KRH buffer is automatically transferred by the FLIPR instrument to each well. Capsaicin-induced calcium mobilization is monitored using either FLUOROSKAN ASCENT (Labsystems; Franklin, Mass.) or FLIPR (fluorometric imaging plate reader system; Molecular Devices, Sunnyvale, Calif.) instruments. Data obtained between 30 and 60 seconds after agonist application are used to generate an 8-point concentration response curve, with final capsaicin concentrations of 1 nM to 3 μM. KALEIDAGRAPH software (Synergy Software, Reading, Pa.) is used to fit the data to the equation: y=a*(1/(1+(b/x)^c)) to determine the 50% excitatory concentration (EC50) for the response. In this equation, y is the maximum fluorescence signal, x is the concentration of the agonist or antagonist (in this case, capsaicin), a is the Emax, b corresponds to the EC50 value and c is the Hill coefficient. Determination of Agonist Activity
Test compounds are dissolved in DMSO, diluted in 20 μl KRH buffer so that the final concentration of test compounds in the assay well is between 1 μM and 5 μM, and added to cells prepared as described above. The 96 well plates containing prepared cells and test compounds are incubated in the dark, at room temperature for 0.5 to 6 hours. It is important that the incubation not continue beyond 6 hours. Just prior to determining the fluorescence response, 100 μl capsaicin in KRH buffer at twice the EC50 concentration determined as described above is automatically added by the FLIPR instrument to each well of the 96 well plate for a final sample volume of 200 μl and a final capsaicin concentration equal to the EC50. The final concentration of test compounds in the assay wells is between 1 μM and 5 μM. […] The concentration of antagonist required to provide a 50% decrease, relative to the response observed in the presence of capsaicin and without antagonist, is the IC50 for the antagonist, and is preferably below 1 micromolar, 100 nanomolar, 10 nanomolar or 1 nanomolar.
As for `COCc1nc2nc(-c3ncccc3C(F)(F)F)ccc2c2c1Oc1cc(F)ccc1N2` [Compound 13, 9-Fluoro-6-methoxymethyl-3-(3-trifluoromethyl-pyridin-2-yl)-12H-7-oxa-4,5,12-triaza-benzo[a]anthracene], the IC50 is no more than 1000 nM. As to `COCc1nc2nc(-c3ncccc3C(F)(F)F)ccc2c2c1Oc1cc(C(C)(C)C)ccc1N2` [Compound 5, 9-tert-Butyl-6-methoxymethyl-3-(3-trifluoromethyl-pyridin-2-yl)-12H-7-oxa-4,5,12-triaza-benzo[a]anthracene], the IC50 is no more than 1000 nM.

As to `COCc1nc2nc(-c3ncccc3C(F)(F)F)ccc2c2c1C(O)c1cc(Br)ccc1N2` (centres unmarked) [Compound 17, 9-Bromo-6-methoxymethyl-3-(3-trifluoromethyl-pyridin-2-yl)-7,12-dihydro-4,5,12-triaza-benzo[a]anthracen-7-ol], the IC50 was no more than 1000 nM. Turning to `COCc1nc2nc(-c3ncccc3C(F)(F)F)ccc2c2c1Oc1cc(C(F)(F)F)ccc1N2` [Compound 1, 6-Methoxymethyl-9-trifluoromethyl-3-(3-trifluoromethyl-pyridin-2-yl)-12H-7-oxa-4,5,12-triaza-benzo[a]anthracene], the IC50 is no more than 1000 nM.

As to `C[C@@H]1CN(Cc2nc3nc(-c4ncccc4C(F)(F)F)ccc3c3c2Oc2cc(C(F)(F)F)ccc2N3)C[C@H](C)O1` [Compound 8, 6-(2,6-Dimethyl-morpholin-4-ylmethyl)-9-trifluoromethyl-3-(3-trifluoromethyl-pyridin-2-yl)-12H-7-oxa-4,5,12-triaza-benzo[a]anthracene (cis)], the IC50 is no more than 1000 nM.

Take `FC(F)(F)c1ccc2c(c1)Oc1c(Cl)nc3nc(-c4ncccc4C(F)(F)F)ccc3c1N2` [Compound 6, 6-Chloro-9-trifluoromethyl-3-(3-trifluoromethyl-pyridin-2-yl)-12H-7-oxa-4,5,12-triaza-benzo[a]anthracene]: the IC50 was no more than 1000 nM. Turning to `COCc1nc2nc(-c3ncccc3C(F)(F)F)ccc2c2c1Oc1ccc(Cl)cc1N2` [Compound 3, 10-Chloro-6-methoxymethyl-3-(3-trifluoromethyl-pyridin-2-yl)-12H-7-oxa-4,5,12-triaza-benzo[a]anthracene], the IC50 was no more than 1000 nM.

As to `CCCN(CCC)Cc1nc2nc(-c3ncccc3C(F)(F)F)ccc2c2c1Oc1cc(C(F)(F)F)ccc1N2` [Compound 9, Dipropyl-[9-trifluoromethyl-3-(3-trifluoromethyl-pyridin-2-yl)-12H-7-oxa-4,5,12-triaza-benzo[a]anthracen-6-ylmethyl]-amine], the IC50 was no more than 1000 nM. Consider `COCc1nc2nc(-c3ncccc3C(F)(F)F)ccc2c2[nH]c3ccc(Br)cc3c(=O)c12` [Compound 16, 9-Bromo-6-methoxymethyl-3-(3-trifluoromethyl-pyridin-2-yl)-12H-4,5,12-triaza-benzo[a]anthracen-7-one], for which the IC50 was no more than 1000 nM. For the compound `Cc1nc2nc(-c3ncccc3C(F)(F)F)ccc2c2c1Oc1cc(C(F)(F)F)ccc1N2` [Compound 10, 6-Methyl-9-trifluoromethyl-3-(3-trifluoromethyl-pyridin-2-yl)-12H-7-oxa-4,5,12-triaza-benzo[a]anthracene], the IC50 was no more than 1000 nM. For `Cc1nc2cc(-c3ncccc3C(F)(F)F)ccc2c2c1Oc1ccccc1N2` [Compound 14, 6-Methyl-3-(3-trifluoromethyl-pyridin-2-yl)-12H-7-oxa-5,12-diaza-benzo[a]anthracene], the IC50 is no more than 1000 nM. Consider `CC(C)COCc1nc2nc(-c3ncccc3C(F)(F)F)ccc2c2c1Oc1cc(C(F)(F)F)ccc1N2` [Compound 12, 6-Isobutoxymethyl-9-trifluoromethyl-3-(3-trifluoromethyl-pyridin-2-yl)-12H-7-oxa-4,5,12-triaza-benzo[a]anthracene], for which the IC50 is no more than 1000 nM.

`COCc1nc2nc(-c3ncccc3C(F)(F)F)ccc2c2c1Oc1cc(S(C)(=O)=O)ccc1N2` [Compound 4, 9-Methanesulfonyl-6-methoxymethyl-3-(3-trifluoromethyl-pyridin-2-yl)-12H-7-oxa-4,5,12-triaza-benzo[a]anthracene]: the IC50 is no more than 1000 nM. In the case of `FC(F)(F)c1ccc2c(c1)Oc1cnc3nc(-c4ncccc4C(F)(F)F)ccc3c1N2` [Compound 11, 9-Trifluoromethyl-3-(3-trifluoromethyl-pyridin-2-yl)-12H-7-oxa-4,5,12-triaza-benzo[a]anthracene], the IC50 is no more than 1000 nM.

Consider `COCc1nc2nc(-c3ncccc3C(F)(F)F)ccc2c2[nH]c3ccc(Cl)cc3c(=O)c12` [Compound 15, 9-Chloro-6-methoxymethyl-3-(3-trifluoromethyl-pyridin-2-yl)-12H-4,5,12-triaza-benzo[a]anthracen-7-one], for which the IC50 is no more than 1000 nM. On the same count and under the same terms, for `OCc1nc2nc(-c3ncccc3C(F)(F)F)ccc2c2c1Oc1cc(C(F)(F)F)ccc1N2` [Compound 7, [9-Trifluoromethyl-3-(3-trifluoromethyl-pyridin-2-yl)-12H-7-oxa-4,5,12-triaza-benzo[a]anthracen-6-yl]-methanol] the value was no more than 1000 nM.

Another experiment concerns the target VR (Homo sapiens, UniProt Q8NER1).
Assay: not given
Particulars: binds to VR with no more than moderate affinity; typical value; cited from earlier work.
`Cl.Cl.Cl.Cl.Cl.Cl.N.N.N.N.N.N.N.N.N.N.N.N.N.N.[O-2].[O-2].[Ru+3].[Ru+3].[Ru+4]` [ruthenium red]: the Ki was no less than 140000 nM.

The record behind these values is patent US20070203133A1, “Substituted 5,12-diaza-benzoanthracene analogues” (Neurogen Corporation, priority 2004, published 2007).
